Results: US20060154904A1, “Betulinol derivatives as anti-HIV agents” (Cornell Research Foundation, Inc., priority 2004, published 2006)
Where two headings read alike, the source gives them in different places.

Experiments:
[1] = test system: HIV-1 IIIB isolate; experiment: HIV-1 inhibitory effect, p24 antigen capture ELISA in acutely infected 174XCEM cells; assay type: cell-based; conditions: for anti-HIV-1 activity (p24 OD, FIG. 6) / inhibition of HIV infection (FIG. 7): 1 μg/ml; for anti-HIV-1 activity (p24 OD, FIG. 6): 4 days, compared with other betulinol derivatives; for dose-related anti-HIV effect (FIG. 8): doses of 0.5, 1 .5, and 2 μg/ml
[2] = test system: Human T-B hybridoma cell line 174XCEM; experiment: cell viability by trypan blue dye exclusion; assay type: cell-based; conditions: for effect on total cell number or cell viability: trypan blue at four days and seven days; for cell toxicity: doses of 0.5, 1 .5, and 2 μg/ml
Source text: Dimethyl sulfoxide (“DMSO”) buffer was used as “no virus” control.

[3] = test system: another HIV-1 isolate; experiment: effect on 174XCEM cells chronically infected with another HIV-1 isolate; assay type: cell-based; conditions: single dose 1 μg/ml
Method: Agents were also evaluated for an effect on 174XCEM cells chronically infected with another HIV-1 isolate.

[4] = test system: HIV; conditions: Sun et al., J. Med. Chem. 41:4648-4657 (1998); cited from earlier work
[5] = test system: AZT-resistant HIV strain; experiment: anti-HIV activity against AZT-resistant patient isolates in MT-2 cells; assay type: cell-based
Source text: These isolates were used to infect MT-2 cells in vitro.

[6] = solubility in DMSO diluted with culture medium, GC against standard curve; assay type: physicochemical
Method: The residue was dissolved in chloroform analyzed on GC.
Ethyl ether was then evaporated.

[7] = solubilization in PBS containing human γ-globulin, human albumin and ethanol; assay type: physicochemical; conditions: 1 × 10^−3 mol/L
[8] = solubility in human serum; assay type: physicochemical; conditions: 1.34 mg in 31 μL ethanol and 700 μL human serum
[9] = tolerability of solubilized drug in mice with prostate cancer cell xenografts; assay type: in vivo; conditions: final concentration 22% ethanol and 2×10^−3 mol per liter of betulonic acid
[10] = test system: cells; conditions: cited from earlier work
[11] = culture medium containing 20% DMSO, calculated from amount and volume

C=C(C)[C@@H]1CC[C@]2(CO)CC[C@]3(C)[C@H](CC[C@@H]4[C@@]5(C)CC[C@H](OC(C)=O)C(C)(C)[C@@H]5CC[C@]43C)[C@@H]12 [3-acetoxy betulin]
anti-HIV-1 activity (p24 OD, FIG. 6) [1]: superior | effect on total cell number or cell viability [2]: no effect

C=C(C)[C@@H]1CC[C@]2(C=O)CC[C@]3(C)[C@H](CC[C@@H]4[C@@]5(C)CCC(=O)C(C)(C)[C@@H]5CC[C@]43C)[C@@H]12 [betulone aldehyde]
inhibition of HIV infection (FIG. 7) [1]: 37% | dose-related anti-HIV effect (FIG. 8) [1]: Progressive increases in anti-HIV effect | cell toxicity [2]: without cell toxicity | inhibition in chronically infected cells [3]: minimal effect

C=C(C)C1CCC2(CO)CC[C@]3(C)[C@H](CC[C@@H]4[C@@]5(C)CCC(O)C(C)(C)[C@@H]5CC[C@]43C)C12 (stereo partly drawn) [betulinol, lup-20(29)-ene-3β, 28-diol]
inhibition of HIV infection (FIG. 7) [1]: no effect | dose-related anti-HIV effect (FIG. 9) ([1]; doses 1.3, 1.6, and 2 μg/ml): increasing anti-HIV effect | inhibition in chronically infected cells [3]: minimal effect

C=C(C)[C@@H]1CC[C@]2(COC(C)=O)CC[C@]3(C)[C@H](CC[C@@H]4[C@@]5(C)CC[C@H](OC(C)=O)C(C)(C)[C@@H]5CC[C@]43C)[C@@H]12 [betulin diacetate]
inhibition of HIV infection (FIG. 7) [1]: 57% | dose-related anti-HIV effect (FIG. 8) [1]: Progressive increases in anti-HIV effect | cell toxicity [2]: without cell toxicity | inhibition in chronically infected cells [3]: 20% | therapeutic index [4]: low therapeutic index

Cc1cn([C@H]2C[C@H](N=[N+]=[N-])[C@@H](CO)O2)c(=O)[nH]c1=O [AZT, 3′-azido-3′-deoxythymidine, reference compound]
inhibition in the HIV infection ([5]; day 8): ineffective

C=C(C)[C@@H]1CC[C@]2(COC(C)=O)CC[C@]3(C)[C@H](CC[C@@H]4[C@@]5(C)CC[C@H](O)C(C)(C)[C@@H]5CC[C@]43C)[C@@H]12 [28-acetoxy betulin]
anti-HIV-1 activity (p24 OD, FIG. 6) [1]: superior | dose-related anti-HIV-1 activity (FIG. 10) ([1]; doses 0.5, 1, 1.5, and 2 μg/ml): comparable anti-HIV-1 activity | effect on total cell number or cell viability [2]: no effect

C=C(C)C1CCC2(C(=O)NCCCCC(NC(=O)C(CCCCNC(=O)C34CCC(C(=C)C)C3[C@@H]3CC[C@H]5[C@]6(C)CCC(=O)C(C)(C)[C@H]6CC[C@]5(C)[C@@]3(C)CC4)NC(=O)OC(C)(C)C)C(=O)O)CC[C@]3(C)[C@H](CC[C@@H]4[C@@]5(C)CCC(=O)C(C)(C)[C@@H]5CC[C@]43C)C12 (stereo partly drawn) [Boc-Dimer]
Concentration of drug (mg/mL) [6, 11]: 0.6 mg/mL | Concentration of drug (mol/L) [6, 11]: 0.0005 mol/L

C=C(C)C1CCC2(C(=O)O)CC[C@]3(C)[C@H](CC[C@@H]4[C@@]5(C)CCC(=O)C(C)(C)[C@@H]5CC[C@]43C)C12 (stereo partly drawn) [betulonic acid]
amount of betulonic acid dissolved ([6]; out of 3 mg, 1% DMSO in culture medium containing 10% FBS, nominal 0.5 mg/mL): 0.4 mg | Observation ([7]; γ-globulin in PBS 0 mL, albumin in PBS 2.50 mL, ethanol 280 μL): Complete | Observation ([7]; γ-globulin in PBS 0.32 mL, albumin in PBS 2.85 mL, ethanol 352 μL): Clear | Observation ([7]; γ-globulin in PBS 0.69 mL, albumin in PBS 2.07 mL, ethanol 308 μL): Almost Clear | Observation ([7]; γ-globulin in PBS 1.48 mL, albumin in PBS 0.49 mL, ethanol 220 μL): Cloudy | Observation ([7]; γ-globulin in PBS 1.48 mL, albumin in PBS 1.48 mL, ethanol 330 μL): Little Cloudy | Observation ([7]; γ-globulin in PBS 2.50 mL, albumin in PBS 0 mL, ethanol 280 μL): Suspension | Observation [8]: Clear Solution | tolerability [9]: well tolerated | inhibition in the HIV infection ([5]; day 5): 56% | inhibition in the HIV infection ([5]; day 8): 44% | cytotoxicity [10]: cytotoxic

C=C(C)C1CCC2(COC)CCC3(C)C(CCC4C5(C)CCC(OC)C(C)(C)C5CCC43C)C12 (stereo not drawn) [betulin dimethyl ether]
anti-HIV-1 activity (p24 OD, FIG. 6) [1]: superior | effect on total cell number or cell viability [2]: no effect

C=C(C)C1CCC2(C(=O)NCCCCC(NC(=O)OC(C)(C)C)C(=O)O)CC[C@]3(C)[C@H](CC[C@@H]4[C@@]5(C)CCC(=O)C(C)(C)[C@@H]5CC[C@]43C)C12 (stereo partly drawn) [Boc-Monomer]
Concentration of drug (mg/mL) [6]: 0.7 mg/mL | tolerability [9]: well tolerated
